According to US20220331309A1, “PHARMACEUTICAL COMPOSITION FOR TREATING INSOMNIA” (priority 2019, published 2022):

Tests used:
[1] = test system: CYP3A; details: FDA guidance classification; cited from earlier work
[2] = Pharmacokinetics of lemborexant alone and in combination with fluconazole in healthy adults (Test Example 1-1); details: for Cmax (geometric mean): healthy adults
Protocol: A single dose of 10 mg lemborexant was administered to fourteen healthy adults (males and females, 18 to 55 years old) (single administration of lemborexant); 200 mg of fluconazole was administered one time per day (two times only on Day 11) from Day 11 to Day 26 where the single administration of the lemborexant was defined as Day 1; and a single dose of 10 mg lemborexant was administered on Day 15 (administration of lemborexant in combination with fluconazole). The concentrations of lemborexant in the plasma during the single administration of lemborexant and during the administration of lemborexant in combination with fluconazole were measured with a high performance liquid chromatograph/tandem mass spectrometry (hereinafter, referred to as “LC-MS/MS”) under the following conditions to calculate the geometric means of the Cmax and the AUC (0-inf).
(§1) HPLC (pump: LC-10ADvp or LC 20AD, Autosampler SLL 20ACHT, SHIMADZU Corporation) mass spectrometer (API5000 or API5500, AB Sciex)
(§2) A 10 μL solution of an internal standard substance (lemborexant labeled with deuterium) was added to 100 μL of a human plasma, and the resulting mixture was convened into a basic condition with 10 μL of aqueous ammonia and was subjected to liquid-liquid extraction with methyl tert-butyl ether (MTBE). After stirring (for about 10 minutes) and centrifugation (about 14000 rpm, for about 10 minutes) were performed, the upper layer was evaporated into dryness at 30° C. under a nitrogen stream, and was redissolved with 200 μL of a mixed solution (50/50, v/v) of 0.1% formic acid-containing acetonitrile/water to prepare a sample for LC-MS/MS.
(§3) The measurement was performed in an MRM mode by positive detection of an electrospray ionization (ESI) method. […] A variety of parameters for AP15500/5500 Qtrap used are shown below. Ion spray Voltage: 5500 v, Curtain Gas 40, CAD 8, Gas1 70, Gas2 70, DP100, Dwell time 250 (parameters are not limited to these)
(§4) The lemborexant concentration in the plasma was calculated using an internal standard calibration curve created through inverse regression according to the method of least squares generated from the ratio of the peak area of lemborexant to that of the internal standard substance.

[3] = Prediction of pharmacokinetics of 2.5 mg lemborexant in combination with agent moderately or strongly inhibiting CYP3A (Test Example 1-3, dose proportionality); format: in vivo, human; details: for AUC(0-inf) / Cmax: both sexes, human, plasma, oral; for AUC(0-inf): read-out: mean AUC (0-inf) achieved; for Cmax: read-out: mean Cmax achieved
Protocol: The results are shown in Tables 3 and 4 with the actually measured values of the single administration of 10 mg lemborexant in Sections (1-1) and (1-2) above.

[4] = Pharmacokinetics of lemborexant alone and in combination with itraconazole in healthy adults (Test Example 1-2); details: for Cmax (geometric mean): healthy adults
Protocol: as §1, §2, §3, §4
A single dose of 10 mg lemborexant was administered to fifteen healthy adults (males and females, 21 to 55 years old) (single administration of lemborexant); 200 mg of itraconazole was administered one time per day from Day 15 to Day 34 where the single administration of lemborexant was defined as Day 1; and a single dose of 10 mg lemborexant was administered on Day 22 (administration of lemborexant in combination with itraconazole).

[5] = Single dose administration test of lemborexant in healthy adults (Test Example 3); format: in vivo, human; details: for AUC(0-inf) / Cmax: human, plasma, oral
Protocol: In 64 cases of healthy adults under a feed-deprived condition, the pharmacokinetics of lemborexant administered with single doses of 1, 2.5, 5, 10, 25, 50, 100, and 200 mg thereof was examined by a randomized, double-blinded, placebo-controlled, multi-stage single administration test. In each group, lemborexant was administered to six cases, and the placebo was administered to two cases.
The transition of the mean lemborexant concentration in the plasma when single doses of 1, […], 10, 25, 50, 100, and 200 mg lemborexant were administered to the healthy adults is shown in FIG. 1.

[6] = 10 mg lemborexant in combination with fluconazole
[7] = both, human, plasma, oral, 10 mg
[8] = combination with fluconazole vs single administration, 10 mg lemborexant
[9] = single administration of 10 mg lemborexant, plasma
[10] = 2.5 mg lemborexant in combination with fluconazole
[11] = 2.5 mg lemborexant in combination with itraconazole
[12] = 2.5 mg lemborexant, lower to upper limit of 95% CI in combination with fluconazole
[13] = 2.5 mg lemborexant, lower to upper limit of 95% CI in combination with itraconazole
[14] = 10 mg lemborexant in combination with itraconazole
[15] = combination with itraconazole vs single administration, 10 mg lemborexant
[16] = all administration groups, in average

SMILES: CCC(C)n1ncn(-c2ccc(N3CCN(c4ccc(OCC5COC(Cn6cncn6)(c6ccc(Cl)cc6Cl)O5)cc4)CC3)cc2)c1=O (stereo not shown) [Itraconazole, itraconazole]
- Classification of CYP3A inhibiting action of drug used in combination [1]: Strongly

SMILES: OC(Cn1cncn1)(Cn1cncn1)c1ccc(F)cc1F [fluconazole]
- Classification of CYP3A inhibiting action of drug used in combination [1]: moderately

SMILES: Cc1ncc(OC[C@@]2(c3cccc(F)c3)C[C@H]2C(=O)Nc2ccc(F)cn2)c(C)n1 [lemborexant, (1R,2S)-2-(((2,4-dimethylpyrimidin-5-yl)oxy)methyl)-2-(3-fluorophenyl)-N-(5-fluoropyridin-2-yl)cyclopropanecarboxamide]
- increase of mean AUC (0-inf) compared to single administration [2, 6]: 317%
- increase of mean Cmax compared to single administration [2, 6]: 62%
- Cmax (geometric mean) ([2]; 10 mg lemborexant in combination with fluconazole 200 mg once per day, plasma): 88.3 ng/mL
- AUC(0-inf) [2, 7]: 374 ng·h/mL
- AUC(0-inf) ratio of (b) to (a) [2, 8]: 4.17
- Cmax ratio of (b) to (a) [2, 8]: 1.62
- Cmax (geometric mean) [2, 9]: 54.4 ng/mL
- AUC(0-inf), predicted value (geometric mean) [3, 10]: 370 ng·h/mL
- Cmax, predicted value (geometric mean) [3, 10]: 22.1 ng/mL
- predicted mean AUC (0-inf) lower than mean AUC (0-inf) of single 10 mg dose [3, 10]: 1.1%
- predicted mean Cmax lower than mean Cmax of single 10 mg dose [3, 10]: 59.4%
- AUC(0-inf), predicted value (geometric mean) [3, 11]: 447 ng·h/mL
- Cmax, predicted value (geometric mean) [3, 11]: 18.9 ng/mL
- predicted mean AUC (0-inf) higher than mean AUC (0-inf) of single 10 mg dose [3, 11]: 32%
- AUC(0-inf) [3, 12]: 308 to 445 ng·h/mL
- Cmax [3, 12]: 18.1 to 26.9 ng/mL
- AUC(0-inf) [3, 13]: 374 to 533 ng·h/mL
- Cmax [3, 13]: 17 to 21.1 ng/mL
- Cmax ([3]; 2.5 mg, 2.5 mg lemborexant with moderate or strong CYP3A inhibitor, lower 95% CI limit with itraconazole to upper 95% CI limit with fluconazole): 17 to 26.9 ng/mL
- AUC(0-inf) ([3]; 2.5 mg lemborexant with moderate or strong CYP3A inhibitor, lower 95% CI limit with fluconazole to upper 95% CI limit with itraconazole): 308 to 533 ng·h/mL
- increase of mean AUC (0-inf) compared to single administration [4, 14]: 270%
- increase of mean Cmax compared to single administration [4, 14]: 36%
- Cmax (geometric mean) ([4]; 10 mg lemborexant in combination with itraconazole 200 mg once per day, plasma): 73.9 ng/mL
- AUC(0-inf) [4, 7]: 433 ng·h/mL
- AUC(0-inf) ratio of (d) to (c) [4, 15]: 3.70
- Cmax ratio of (d) to (c) [4, 15]: 1.36
- Cmax (geometric mean) [4, 9]: 54.3 ng/mL
- exposure until 9 hours after administration as proportion of the AUC (0-inf) [5, 16]: about 45%
- exposure until 9 hours after administration as proportion of the exposure until 24 hours [5, 16]: about 75%
- increase of geometric mean Cmax relative to dose ([5]; dose of 10 mg or more): slightly lower than the dose ratio
- dose dependence of the mean AUC (0-24 h) ([5]; examined dose range 1 to 200 mg): approximately dose proportionality
- AUC(0-inf) ([5]; 5 mg, single administration of 5 mg lemborexant, healthy adults, read-out: AUC(0-inf), Geometric mean): 146 ng·h/mL
- AUC(0-inf) ([5]; 5 mg, single administration of 5 mg lemborexant, healthy adults, read-out: AUC(0-inf), Mean): 149 ng·h/mL
- AUC(0-inf) ([5]; 5 mg, single administration of 5 mg lemborexant, healthy adults, read-out: AUC(0-inf), Median): 139 ng·h/mL
- AUC(0-inf) ([5]; 5 mg, single administration of 5 mg lemborexant, healthy adults, read-out: AUC(0-inf), Minimum value): 123 ng·h/mL
- AUC(0-inf) ([5]; 5 mg, single administration of 5 mg lemborexant, healthy adults, read-out: AUC(0-inf), maximum value): 209 ng·h/mL
- Cmax ([5]; 5 mg, single administration of 5 mg lemborexant, healthy adults, read-out: Cmax, Geometric mean): 22.3 ng/mL
- Cmax ([5]; 5 mg, single administration of 5 mg lemborexant, healthy adults, read-out: Cmax, Mean): 22.7 ng/mL
- Cmax ([5]; 5 mg, single administration of 5 mg lemborexant, healthy adults, read-out: Cmax, Median): 21.9 ng/mL
- Cmax ([5]; 5 mg, single administration of 5 mg lemborexant, healthy adults, read-out: Cmax, Minimum value): 17.2 ng/mL
- Cmax ([5]; 5 mg, single administration of 5 mg lemborexant, healthy adults, read-out: Cmax, maximum value): 30 ng/mL
- AUC(0-inf) ([5]; 5 mg, single dose of 5 mg lemborexant, read-out: AUC (0-inf), lower limit value of the 95% confidence interval): 113 ng·h/mL
- AUC(0-inf) ([5]; 5 mg, single dose of 5 mg lemborexant, read-out: AUC (0-inf), upper limit value of the 95% confidence interval): 189 ng·h/mL
- Cmax ([5]; 5 mg, single dose of 5 mg lemborexant, read-out: Cmax, lower limit value of the 95% confidence interval): 18.3 ng/mL
- Cmax ([5]; 5 mg, single dose of 5 mg lemborexant, read-out: Cmax, upper limit value of the 95% confidence interval): 27.3 ng/mL
- AUC(0-inf) ([5]; 10 mg, single administration of 10 mg lemborexant, healthy adults, read-out: AUC(0-inf), Geometric mean): 299 ng·h/mL
- AUC(0-inf) ([5]; 10 mg, single administration of 10 mg lemborexant, healthy adults, read-out: AUC(0-inf), Mean): 311 ng·h/mL
- AUC(0-inf) ([5]; 10 mg, single administration of 10 mg lemborexant, healthy adults, read-out: AUC(0-inf), Median): 314 ng·h/mL
- AUC(0-inf) ([5]; 10 mg, single administration of 10 mg lemborexant, healthy adults, read-out: AUC(0-inf), Minimum value): 188 ng·h/mL
- AUC(0-inf) ([5]; 10 mg, single administration of 10 mg lemborexant, healthy adults, read-out: AUC(0-inf), maximum value): 409 ng·h/mL
- Cmax ([5]; 10 mg, single administration of 10 mg lemborexant, healthy adults, read-out: Cmax, Geometric mean): 32 ng/mL
- Cmax ([5]; 10 mg, single administration of 10 mg lemborexant, healthy adults, read-out: Cmax, Mean): 36 ng/mL
- Cmax ([5]; 10 mg, single administration of 10 mg lemborexant, healthy adults, read-out: Cmax, Median): 31.4 ng/mL
- Cmax ([5]; 10 mg, single administration of 10 mg lemborexant, healthy adults, read-out: Cmax, Minimum value): 16.9 ng/mL
- Cmax ([5]; 10 mg, single administration of 10 mg lemborexant, healthy adults, read-out: Cmax, maximum value): 62.1 ng/mL
- AUC(0-inf) ([5]; 10 mg, single dose of 10 mg lemborexant, read-out: AUC (0-inf), lower limit value of the 95% confidence interval): 216 ng·h/mL
- AUC(0-inf) ([5]; 10 mg, single dose of 10 mg lemborexant, read-out: AUC (0-inf), upper limit value of the 95% confidence interval): 414 ng·h/mL
- Cmax ([5]; 10 mg, single dose of 10 mg lemborexant, read-out: Cmax, lower limit value of the 95% confidence interval): 18.3 ng/mL
- AUC(0-inf) ([5]; dose 5 to 10 mg, lower 95% CI limit Table 9 (5 mg) to upper 95% CI limit Table 4 (10 mg), read-out: mean AUC (0-inf) achieved): 113 to 537 ng·h/mL
- Cmax ([5]; dose 5 to 10 mg, lower limit for 5 mg with weak CYP3A inhibitor to upper 95% CI limit Table 8 (10 mg), read-out: mean Cmax achieved): 16.5 to 56 ng/mL
- Cmax, upper limit value of the 95% confidence interval ([5]; single dose of 10 mg lemborexant): 56.0 ng/mL
- elimination profile of plasma concentration after administration ([5]; single doses 1 to 200 mg, healthy adults): biphasic elimination
